Laboratory results published in patent US9073916B2, “Prodrug forms of kinase inhibitors and their use in therapy” (AUCKLAND UNISERVICES LIMITED, priority 2009, dated 2015).
Read-outs that look alike come from different tables or passages of the source.

Key:
[1] = Steady state radiolytic reduction by the CO2.− radical with HPLC-MS; assay type: physicochemical
[2] = system: SW620 cells; test: Cellular growth inhibition (sulforhodamine B); assay type: cell-based, Human; details: Table 3
Experimental: (§2) Human A431, BT474, SKBR3, SKOV3, SW620, H1975 and HT29 carcinoma cells in log phase exponential growth in alpha minimal essential media (αMEM) containing 5% fetal bovine serum (FBS), were harvested by trypsinisation (1× trypsin/EDTA, Gibco Brl), counted, and seeded into 96 well plates (Nunc) at cell densities ranging from 800-1500 cells/well. Half of the cell samples were seeded into plates that were pre-equilibrated and held in an anoxic environment (90% N2, 5% H2, 5% CO2, 37° Q Anaerobic chamber, Coy Laboratory Products). […] At the end of this period the anoxic plates were recovered from the anaerobic camber and held under normoxia in a standard CO2 incubator (37° C.) for 20 hours. All plates were washed free of compound and cells were allowed to proliferate for a further 4 days in αMEM containing 5% FBS+antibiotics. Cells were fixed in trichloroacteic acid (30 min), washed and stained with sulforhodamine B (SRB, 60 min) prior to washing in acidified water. SRB was solubilised and absorption read at 450 nm to calculate cell densities. Inhibition of proliferation was calculated relative to untreated control wells.

[3] = system: A431 cells; test: Oxic and hypoxic cellular metabolism of prodrug 20; assay type: in vitro ADME, Human; details: 10 uM prodrug
Experimental: (§1) A431 and SKOV3 cells were grown in a 175 flask and seeded at 40K, a density which gave an 80-90% confluent cell layer after 7 days growth. Cells were washed with PBS, harvested with 0.05% trypsin/EDTA, centrifuged at 1000 rpm for 5 mins at room temperature and re-suspended in a 1 mL of cell culture medium (α-MEM containing 10% FCS, 10 mM D-Glucose and 0.2 mM 2′-deoxycytidine). Cell numbers were determined with the Coulter counter and the appropriate number of cells was transferred to a new tube. 5×10^5 cells per well were plated into wells of a 24-well plate in a total volume of 350 μL/well (i.e. 14.3×10^5 cells/mL). Cells were incubated at 37° C. for two hours to attach to the wells and for anoxic samples to equilibrate. […] The cells were incubated for 1, 2 or 3 hours at 37° C. At the appropriate time the 24 well plate was removed from the incubator/anoxic chamber and placed on ice. The contents of each well was transferred to the microcentrifuge tube kept on ice. 800 μL of acetonitrile (spiked with D6 internal standards of compounds 11 and 20, each 0.5 uM) was added to each of the drug treated wells to allow efficient extraction from the cell monolayer. Then the entire contents (1200 uL=400+800 uL) was vortex mixed and transferred to −80° C. for storage until they were run on the LC-MS/MS system. A similar procedure was followed for the control samples. […]

[4] = system: SKOV3 cells; test: Oxic and hypoxic cellular metabolism of prodrug 20; assay type: in vitro ADME, Human; details: 10 uM prodrug
Experimental: as §1

[5] = molecular target: erbB4 (Homo sapiens, UniProt Q15303); test: Isolated enzyme inhibition (Invitrogen Z′-LYTE kinase assay); assay type: biochemical; details: 10 μM ATP, duplicate
erbB4, sequence (Q15303 26-1308): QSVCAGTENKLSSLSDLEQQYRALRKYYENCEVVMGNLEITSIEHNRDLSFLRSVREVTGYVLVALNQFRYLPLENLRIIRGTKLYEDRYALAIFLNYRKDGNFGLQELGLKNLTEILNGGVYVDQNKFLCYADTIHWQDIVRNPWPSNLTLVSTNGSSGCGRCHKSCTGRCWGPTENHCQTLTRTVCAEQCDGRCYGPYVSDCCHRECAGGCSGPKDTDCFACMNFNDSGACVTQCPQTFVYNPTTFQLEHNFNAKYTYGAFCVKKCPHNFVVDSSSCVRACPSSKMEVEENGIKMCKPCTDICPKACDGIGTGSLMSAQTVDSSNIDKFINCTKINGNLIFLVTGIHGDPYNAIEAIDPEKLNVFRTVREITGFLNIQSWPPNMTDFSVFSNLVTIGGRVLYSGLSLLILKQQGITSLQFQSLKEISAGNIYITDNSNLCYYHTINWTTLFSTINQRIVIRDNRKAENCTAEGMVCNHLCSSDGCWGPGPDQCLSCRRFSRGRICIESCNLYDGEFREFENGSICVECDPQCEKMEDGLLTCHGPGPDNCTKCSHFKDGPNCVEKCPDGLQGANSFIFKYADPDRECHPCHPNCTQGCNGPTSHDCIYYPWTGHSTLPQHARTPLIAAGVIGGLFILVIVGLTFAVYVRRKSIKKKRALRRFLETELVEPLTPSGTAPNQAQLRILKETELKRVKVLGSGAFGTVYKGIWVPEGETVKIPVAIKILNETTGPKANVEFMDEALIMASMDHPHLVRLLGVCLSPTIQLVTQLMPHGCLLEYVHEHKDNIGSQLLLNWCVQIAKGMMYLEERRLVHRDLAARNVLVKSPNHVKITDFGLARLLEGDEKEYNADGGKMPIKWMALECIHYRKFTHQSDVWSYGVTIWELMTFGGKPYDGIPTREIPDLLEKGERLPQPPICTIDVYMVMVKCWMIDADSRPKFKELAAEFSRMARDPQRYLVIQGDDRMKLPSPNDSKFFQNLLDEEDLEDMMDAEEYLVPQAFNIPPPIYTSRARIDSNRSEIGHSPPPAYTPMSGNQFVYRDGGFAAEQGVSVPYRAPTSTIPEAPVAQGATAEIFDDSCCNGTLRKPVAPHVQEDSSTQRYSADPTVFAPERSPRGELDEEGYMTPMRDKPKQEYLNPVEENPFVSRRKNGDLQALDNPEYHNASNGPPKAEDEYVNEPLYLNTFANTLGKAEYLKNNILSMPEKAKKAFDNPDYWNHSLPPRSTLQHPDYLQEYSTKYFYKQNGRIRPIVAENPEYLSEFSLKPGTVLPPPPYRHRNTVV

[6] = molecular target: T1, erbB2 (Homo sapiens, UniProt P04626); test: as above; assay type: biochemical; details: 10 μM ATP, duplicate
T1 sequence (P04626 23-1255): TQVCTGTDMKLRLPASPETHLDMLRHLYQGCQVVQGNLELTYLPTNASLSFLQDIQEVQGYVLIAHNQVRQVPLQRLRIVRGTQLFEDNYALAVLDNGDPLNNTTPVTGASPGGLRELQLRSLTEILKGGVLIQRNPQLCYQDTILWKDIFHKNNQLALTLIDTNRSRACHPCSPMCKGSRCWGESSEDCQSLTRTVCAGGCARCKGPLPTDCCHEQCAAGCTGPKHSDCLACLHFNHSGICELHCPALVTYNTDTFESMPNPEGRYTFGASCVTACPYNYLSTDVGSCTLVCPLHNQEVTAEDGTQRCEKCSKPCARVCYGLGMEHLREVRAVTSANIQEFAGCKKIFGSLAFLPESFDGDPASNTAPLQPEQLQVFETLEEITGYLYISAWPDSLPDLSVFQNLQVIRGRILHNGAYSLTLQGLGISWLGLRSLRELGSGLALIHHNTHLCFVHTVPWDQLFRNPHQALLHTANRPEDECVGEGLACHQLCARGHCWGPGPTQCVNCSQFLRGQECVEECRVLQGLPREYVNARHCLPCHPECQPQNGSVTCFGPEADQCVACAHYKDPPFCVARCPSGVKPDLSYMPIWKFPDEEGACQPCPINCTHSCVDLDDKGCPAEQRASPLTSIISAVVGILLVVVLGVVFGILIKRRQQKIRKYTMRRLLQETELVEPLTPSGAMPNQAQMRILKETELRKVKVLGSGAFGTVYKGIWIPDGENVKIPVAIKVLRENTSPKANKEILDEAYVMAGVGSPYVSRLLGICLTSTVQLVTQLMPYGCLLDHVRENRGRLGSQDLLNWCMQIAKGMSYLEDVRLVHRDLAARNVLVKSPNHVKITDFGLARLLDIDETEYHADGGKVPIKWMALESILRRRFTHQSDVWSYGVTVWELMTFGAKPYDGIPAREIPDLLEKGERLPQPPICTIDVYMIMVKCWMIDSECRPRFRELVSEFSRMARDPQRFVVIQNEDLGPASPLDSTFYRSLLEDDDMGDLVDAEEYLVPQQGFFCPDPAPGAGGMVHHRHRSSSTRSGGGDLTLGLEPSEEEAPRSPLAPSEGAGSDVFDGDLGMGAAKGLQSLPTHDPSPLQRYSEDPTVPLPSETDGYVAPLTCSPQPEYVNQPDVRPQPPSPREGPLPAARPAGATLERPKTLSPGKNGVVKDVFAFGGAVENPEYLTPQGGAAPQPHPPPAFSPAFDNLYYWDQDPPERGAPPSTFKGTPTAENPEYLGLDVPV

[7] = Hypoxia-selective reduction of prodrug 20 in cell free media; assay type: in vitro ADME; details: cell free media containing 5% fetal calf serum, hypoxic
[8] = Solubility by HPLC; details: α-MEM cell culture medium
[9] = system: H1975 cells; test: Cellular growth inhibition (sulforhodamine B); assay type: cell-based, Human; details: Table 9; for IC50: Homo sapiens, NCI-H1975
Experimental: as §2
(§3) Human A431, H1975 and SKOV3 carcinoma cells in log phase exponential growth in alpha minimal essential media (αMEM) containing 5% fetal bovine serum (FBS), were harvested by trypsinisation (1× trypsin/EDTA, Gibco Brl), counted, and seeded into 96 well plates (Nunc) at cell densities ranging from 800-1500 cells/well. Half of the cell samples were seeded into plates that were pre-equilibrated and held in an anoxic environment (90% N2, 5% H2, 5% CO2, 37° C.; Anaerobic chamber, Coy Laboratory Products). […] At the end of this period the anoxic plates were recovered from the anaerobic camber and held under normoxia in a standard CO2 incubator (37° C.) for 20 hours. All plates were washed free of compound and cells were allowed to proliferate for a further 4 days in αMEM containing 5% FBS+antibiotics. Cells were fixed in trichloroacteic acid (30 min), washed and stained with sulforhodamine B (SRB, 60 min) prior to washing in acidified water. SRB was solubilised and absorption read at 450 nm to calculate cell densities. Inhibition of proliferation was calculated relative to untreated control wells.
They were then washed free of drug and incubated for a further 4 days, before being stained for cell survival with sulforhodamine B.

[10] = system: H1975 xenografts; test: In vivo efficacy in H1975 xenografts; parameters: species or system mice
Experimental: Specific pathogen-free homozygous female NIH-III nude mice (Charles River Laboratories, Wilmington, Mass.) were inoculated subcutaneously with a single cell suspension of H1975 cells (5×10^6 cells/100 μL; right flank). When H1975 tumour xenografts were established (typically 8-12 days) mice were randomized to treatment groups. All compounds were prepared in lactate buffer (pH4). Mice were dosed by intraperitoneal injection (0.01-0.03 ml/g) using the stated schedules and dose levels. For growth delay experiments mice were randomized to treatment and tumor volume [π(length×width^2)/6] and body weight were measured daily following treatment. […] Differences in RTV^4 were tested for statistical difference by Mann Whitney U test using SigmaStat v3.5.

[11] = Plasma and tissue pharmacokinetics of prodrug 42 in H1975 tumour bearing mice; assay type: in vivo; details: female, NIH-III, mouse, 20 umol/kg, single iv dose of 42 at 20 μmol/kg
Experimental: Compound 42 was dosed at a nominal low dose of 20 μmol/kg to nine female NIH-III mice bearing H1975 tumour xenografts, as a solution in DMSO/5% dextrose (20:80) via intravenous injection. […] The frozen powders were then collected in pre-weighed microcentrifuge tubes (kept on dry ice). Four volumes of ice cold acetonitrile (containing 0.5 μM D6-161 as an internal standard) was added to each sample to extract the drug from the tissue powder. […] To 10 μL of plasma (collected in EDTA) was added 40 μL of ice cold acetonitrile (containing 0.5 μM D6-161 as an internal standard). The resulting solution was mixed and then centrifuged at 13,000 rpm for 5 min.

[12] = molecular target: T1, erbB2; test: Inhibition of basal phospho-erbB2 in SKOV3 cells (Western blot); assay type: cell-based; parameters: endogenous in cells; host or cells: SKOV3 human ovarian carcinoma cells; details: Table 8
Description: Values are plotted using SigmaPlot 10.

[13] = system: SKOV3 cells; test: Cellular growth inhibition (sulforhodamine B); assay type: cell-based, Human; details: Table 9; for IC50: Homo sapiens, SK-OV-3
Experimental: as §3

[14] = in vivo; details: female, NIH-III nude, mouse, ip, pH 4
[15] = HPLC-MS at 0.95 reducing equivalents

Cn1cnc([N+](=O)[O-])c1C[N+](C)(C)C/C=C/C(=O)Nc1ccc2ncnc(Nc3cccc(Br)c3)c2c1.[Br-] [Compound 20, (2E)-4-{[4-(3-bromoanilino)-6-quinazolinyl]amino}-N,N-dimethyl-N-[(1-methyl-4-nitro-1H-imidazol-5-yl)methyl]-4-oxo-2-buten-1-ammonium bromide]
Effector release/Prodrug loss ([1]; 0.95 reducing equivalents): 1.00 | Detection of MNA (methyl nitroaromatic) ([1]; HPLC-MS): Yes | % Loss of prodrug [1, 15]: 55% | % Release of effector [1, 15]: 55% | release of effector following 1-electron reduction ([1]; steady state radiolysis, HPLC-MS): released effector (compound 11) detected | SW620 Deact. [2]: 18 fold | SW620 HCR [2]: 3.1 fold | IC50 ([2]; 24 hour exposure entirely oxic, read-out: Cellular Growth Inhibition IC50 SW620 Oxic): 63.3 µM | IC50 ([2]; first 4 hours anoxic, read-out: Cellular Growth Inhibition IC50 SW620 Anoxic): 20.2 µM | rate of hypoxic metabolism to inhibitor 11 [3]: 200 pmol/hour/million cells | rate of hypoxic metabolism to inhibitor 11 [4]: 500 pmol/hour/million cells | effector AUC as share of prodrug AUC (compound 11 in plasma after dosing prodrug 20): one | AUC0-250 min Effector (effector (compound 11) in plasma after dosing prodrug): 2.7 µM·h | AUC0-250 min Parent (plasma, IP, 42% of single dose MTD, predicted from modelled curves): 279 µM·h | IC50 [5]: 0.085 µM | IC50 [6]: 0.112 µM | rate of release of inhibitor 11 [7]: 62 pmol/h | solubility [8]: 1112 µM

Cn1cnc([N+](=O)[O-])c1C[N+](C)(C)C/C=C/C(=O)Nc1cc2c(Nc3ccc(F)c(Br)c3)ncnc2cn1 [Compound 42, (2E)-4-{[4-(3-bromo-4-fluoroanilino)pyrido[3,4-d]pyrimidin-6-yl]amino}-N,N-dimethyl-N-[(1-methyl-4-nitro-1H-imidazol-5-yl)methyl]-4-oxo-2-buten-1-ammonium bromide]
IC50 ([9]; 24 hour exposure oxic, read-out: Cellular Growth Inhibition IC50 H1975 Oxic): 37.2 µM | IC50 ([9]; first 4 hours anoxic, read-out: Cellular Growth Inhibition IC50 H1975 Anoxic): 4.22 µM | H1975 Deact. [9]: 30 fold | H1975 HCR [9]: 10.8 fold | tumour growth inhibition (TGI) ([10]; H1975 xenografts, equitoxic dose 133 (42) and 42.2 (161) μmol/kg/dose, q3dx4, IP): 188% | tumour growth inhibition (TGI) ([10]; H1975 xenografts, q3dx4 at respective MTD, IP): 229% | tumour growth inhibition (TGI) ([10]; large H1975 xenografts, 75 umol/kg/dose, q3dx8, IP): 154% | tumour growth inhibition (TGI) ([10]; large H1975 xenografts, 100 umol/kg/dose, q3dx8, IP): 213% | tumour growth inhibition (TGI) ([10]; large H1975 xenografts, 133 umol/kg/dose, q3dx8, IP): 275% | AUC(0-t) ([11]; H1975 tumour, read-out: AUC0-24 hr H1975 Tumour, 42): 123 µM·h | AUC(0-t) ([11]; liver, read-out: AUC0-24 hr Liver, 42): 256 µM·h | AUC(0-t) ([11]; plasma, read-out: AUC0-24 hr Plasma, 42): 24.7 µM·h | AUC(0-t) ([11]; skin, read-out: AUC0-24 hr Skin, 42): 198 µM·h | Deact. erbB2 (fold reduction in cellular inhibition relative to the parent kinase inhibitor) ([12]; SKOV3 cells): 35 fold | IC50 ([12]; basal phospho-erbB2 in SKOV3 cells, read-out: Cellular Enzyme Inhibition IC50 erbB2): 0.212 µM | IC50 ([13]; 24 hour exposure oxic, read-out: Cellular Growth Inhibition IC50 SKOV3 Oxic): 35.5 µM | IC50 ([13]; first 4 hours anoxic, read-out: Cellular Growth Inhibition IC50 SKOV3 Anoxic): 2.85 µM | SKOV3 Deact. [13]: 42 fold | SKOV3 HCR [13]: 20.3 fold | MTD [14]: 133 µmol/kg
